Experimental data from paper PMC2901233 (Nuclear medicine and biology, 2010).
Values joined by “and” are separate entries in the source; they are usually repeats but may differ in a detail not shown here. Equal values may be shown once. “Also recorded” adds a separate entry of the source.

Key:
[1] = plasma protein binding by the ultrafiltration method; format: in vitro ADME, baboon (Papio anubis)
[2] = reversed phase HPLC analysis of components of plasma radioactivity; format: in vivo, baboon (Papio anubis)
[3] = format: in vivo, baboon (Papio anubis)
[4] = system: serotonin transporters; test: SPECT binding potential; format: in vivo, baboon (Papio anubis)
[5] = system: 5-HT transporter; details: cited from earlier work
[6] = system: dopamine transporter; details: cited from earlier work
[7] = system: serotonin transporter
[8] = 3 min after injection, arterial plasma
[9] = 5 min after injection, arterial plasma
[10] = 10 min after injection, arterial plasma
[11] = 30 min after injection, arterial plasma
[12] = 60 min after injection, arterial plasma
[13] = 120 min after injection, arterial plasma
[14] = 180 min after injection, arterial plasma
[15] = 360 min after injection, arterial plasma
[16] = MRTM2 analysis, bolus only study, first animal
[17] = average of equilibrium scans prior to displacement, same animal as MRTM2
[18] = 0.5 mg/kg IV at 8 h post-radiotracer, n=2

With `COC(=O)C1C2CCC(CC1c1ccc(/C=C\I)cc1)N2` (stereo not drawn) [[^123I]p ZIENT, 2β-carbomethoxy-3β-(4′-((Z)-2-iodoethenyl)phenyl)nortropane] the “protein bound in plasma” value ([1]; first of the two baboons) was 93.1± 0.3% and 93%, the “protein bound in plasma” value ([1]; second of the two baboons) was 89.8 ± 0.7% and 90% and the “Relative proportion of plasma radioactivity, Parent Compound” value (shortened to “Relative proportion … Parent Compound”) ([2]; 1 min after injection, arterial plasma) was 69%. For the same compound, the “Relative proportion … Parent Compound” value [2, 8] was 69%, the “Relative proportion of plasma radioactivity, Polar Fraction (metabolite)” value [2, 8] was 5% and the “combined two polar metabolite fractions as percent of total plasma activity” value ([2]; 3 min post-injection) was 31%. For the same compound, the “Relative proportion … Parent Compound” value [2, 9] was 65%, the “Relative proportion of plasma radioactivity, Polar Fraction (metabolite)” value [2, 9] was 10% and the “Relative proportion … Parent Compound” value [2, 10] was 43%. The “Relative proportion of plasma radioactivity, Polar Fraction (metabolite)” value [2, 10] was 41%, the “Relative proportion … Parent Compound” value [2, 11] was 16% and the “Relative proportion of plasma radioactivity, Polar Fraction (metabolite)” value [2, 11] was 78%. The “Relative proportion … Parent Compound” value [2, 12] was 10%, the “Relative proportion of plasma radioactivity, Polar Fraction (metabolite)” value [2, 12] was 87% and the “Relative proportion … Parent Compound” value [2, 13] was 5%. For the same compound, the “Relative proportion of plasma radioactivity, Polar Fraction (metabolite)” value [2, 13] was 94%, the “Relative proportion … Parent Compound” value [2, 14] was 4% and the “Relative proportion of plasma radioactivity, Polar Fraction (metabolite)” value [2, 14] was 95%. For the same compound, the “combined two polar metabolite fractions as percent of total plasma activity” value ([2]; 180 min post-injection) was 96%, the “Relative proportion … Parent Compound” value [2, 15] was 3% and the “Relative proportion of plasma radioactivity, Polar Fraction (metabolite)” value [2, 15] was 96%. The “time of peak level of radioactivity in arterial plasma” value ([2]; after bolus injection) was 4 to 7 min, the “time of peak of the transient fraction” value ([2]; arterial plasma) was 3 to 5 min and the “unmetabolized parent as proportion of plasma radioactivity” value ([2]; at the time of peak level of radioactivity in arterial plasma (4-7 min)) was 69%. The “lipophilic radiolabeled metabolites entering the brain” value ([2]; baboon arterial plasma, HPLC) was “no detection; also recorded: detected no radiometabolites that are capable of entering the brain”, the “transient fraction at its peak, proportion of plasma radioactivity” value ([2]; peak at 3-5 min) was 26% and the “time of peak whole brain uptake” value ([3]; bolus IV injection) was 74 min. The “whole brain uptake, percent of injected dose” value ([3]; bolus IV injection, at peak (74 min)) was 2.3%, the “time at which equilibrium was established” value ([3]; bolus to constant infusion at a ratio of 9.0 h) was 4 to 8 h and the “change per hour at equilibrium” value ([3]; bolus to constant infusion, between 4-8 h) was < 5%. The BPND basal ganglia [4, 16] was 0.97, the BPND brainstem [4, 16] was 1.34 and the BPND diencephalon [4, 16] was 1.48. It also gave a BPND hippocampus [4, 16] of 0.49, a BPND temporal cortex [4, 16] of 0.39 and a BPND basal ganglia [4, 17] of 0.81. For the same compound, the BPND brainstem [4, 17] was 1.34, the BPND diencephalon [4, 17] was 1.04 and the BPND hippocampus [4, 17] was 0.82. For the same compound, the BPND temporal cortex [4, 17] was 0.22, the BPND basal ganglia ([4]; second animal) was 2.9 and the BPND brainstem ([4]; second animal) was 4.32. For the same compound, the BPND diencephalon ([4]; second animal) was 3.83, the BPND hippocampus ([4]; second animal) was 2.07 and the BPND temporal cortex ([4]; second animal) was 1.28. For the same compound, the SERT binding affinity [5] was ~0.05 nM and the “specificity for binding to the 5-HT transporter compared to the dopamine transporter” value [6] was 100 fold.
With `COC(=O)C(c1ccccc1)C1CCCCN1` (centres unmarked) [Methylphenidate, methylphenidate] the “Percent Displacement in [123I]p ZIENT (BPND), Basal Ganglia” value [7, 18] was -4%, the “Percent Displacement in [123I]p ZIENT (BPND), Brainstem” value [7, 18] was -11% and the “Percent Displacement in [123I]p ZIENT (BPND), Diencephalon” value [7, 18] was -5%. The “Percent Displacement in [123I]p ZIENT (BPND), Hippocampus” value [7, 18] was -8%, the “Percent Displacement in [123I]p ZIENT (BPND), Temporal Cortex” value [7, 18] was -1% and the “displacement of [123I]p ZIENT in all regions studied, in words” value ([7]; IV at 8 h post-radiotracer, fluoxetine 1.5, 2.5, citalopram 5, methylphenidate 0.5, nisoxetine 1 mg/kg) was “no significant changes”.
